This is an account of results in ChEMBL document CHEMBL5316352, “Puromycin Prodrug Activation by Thioredoxin Reductase Overcomes Its Promiscuous Cytotoxicity” (J Med Chem, 2023).

The subject of series [1] is HepG2. As to the kind of experiment: Cytotoxicity against human HepG2 cells with high TrxR expression assessed as reduction in cell viability incubated for 48 hrs by MTT assay. The format is functional, cell-based. The note with it: HepG2, 48 h.
Series [2] is described as follows: Stability in human plasma assessed as parent compound remaining at 100 uM measured after 48 hrs by HPLC analysis. Format: ADME, cell-free. As to conditions: read-out: Stability.
Series [3] can be described thus: Cytotoxicity against human HEK293T cells with low TrxR expression assessed as reduction in cell viability incubated for 48 hrs by MTT assay. The format is toxicity, cell-based, HEK-293T. (In general: Tetrazolium dyes change colour on reduction, which living cells bring about.)
The test system of series [4] is HeLa. As to the kind of experiment: Cytotoxicity against human HeLa cells with high TrxR expression assessed as reduction in cell viability incubated for 48 hrs by MTT assay. The format is functional, cell-based.
Series [5] can be described thus: Stability in mouse plasma assessed as parent compound remaining at 100 uM measured after 48 hrs by HPLC analysis. Format: ADME, cell-free. The note with it: read-out: Stability.
The nature of series [6]: Cytotoxicity against human BEAS-2B cells with low TrxR expression assessed as reduction in cell viability incubated for 48 hrs by MTT assay. Format: toxicity, cell-based.
The nature of series [7]: Stability of compound in PBS at pH 7.4 assessed as parent compound remaining at 100 uM measured after 48 hrs by HPLC analysis. The format is physicochemical. The note with it: read-out: Stability.
Series [8] concerns HL-60. As to the kind of experiment: Cytotoxicity against human HL-60 cells with low TrxR expression assessed as reduction in cell viability incubated for 48 hrs by MTT assay. The note with it: HL-60, 48 h. Format: functional, cell-based.
In series [9] the test system is MCF7. As to the kind of experiment: Cytotoxicity against human MCF7 cells with low TrxR expression assessed as reduction in cell viability incubated for 48 hrs by MTT assay. As to conditions: MCF7, 48 h. Format: functional, cell-based.
The nature of series [10]: Prodrug activation assessed as TrxR (unknown origin) mediated compound reduction by measuring absorbance at 340 nm at 150 uM in presence of NADPH. As to conditions: human.
The target in series [11] is T1, Thioredoxin (Homo sapiens) (UniProt P10599).
T1 sequence (whole entry): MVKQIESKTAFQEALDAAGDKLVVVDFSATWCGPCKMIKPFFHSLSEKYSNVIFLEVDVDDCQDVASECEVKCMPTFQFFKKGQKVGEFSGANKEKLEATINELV
As to the kind of experiment: Substrate activity at Trx (unknown origin) assessed as reduction in 2-((2-hydroxyethyl)disulfaneyl)ethyl ((S)-1-(((2S,3S,4R,5R)-5-(6-(dimethylamino)-9H-purin-9-yl)-4-hydroxy-2-(hydroxymethyl)tetrahydrofuran-3-yl)amino)-3-(4-methoxyphenyl)-1-oxopropan-2-yl)carbamate level by measuring absorbance at 340 nm at 150 uM in presence of NADPH.

The nature of series [12]: Prodrug activation assessed as GSH mediated compound reduction by measuring absorbance at 340 nm at 150 uM in presence of NADPH.
Series [13] can be described thus: Prodrug activation in human HepG2 cells assessed as increase in rhodamine labelling at 1 uM incubated for 12 hrs by in-gel fluorescence imaging analysis. Format: cell-based. The note with it: hepg2, 12 h.
Series [14] in a line: Prodrug conversion in human HepG2 cells assessed as proteome incorporation at 1 uM pretreated with AF for 30 mins followed by compound addition. As to conditions: hepg2, 1 µM. Format: ADME, cell-based.
A short description of series [15]: Prodrug activation in human HepG2 cells assessed as increase in biotin labelling at 1 uM incubated for 12 hrs by Western blotting analysis. Format: cell-based. The note with it: hepg2, 12 h. (A western blot detects proteins with antibodies after separation by electrophoresis.)
Series [16] in a line: Prodrug activation assessed as increase in TrxR (unknown origin) mediated NADPH oxidation by measuring absorbance at 340 nm at 150 uM. The note with it: human.
For series [17], the system named is HepG2. As to the kind of experiment: Cytotoxicity against human HepG2 cells expressing shTXNRD1 assessed as reduction in cell viability incubated for 48 hrs by MTT assay. As to conditions: HepG2, 48 h. Format: functional, cell-based.
Series [18] in a line: Prodrug activation in human HeLa cell lysate assessed as reduction in 1,2-dithiolan-4-yl ((S)-1-(((2S,3S,4R,5R)-5-(6-(dimethylamino)-9H-purin-9-yl)-4-hydroxy-2-(hydroxymethyl)tetrahydrofuran-3-yl)amino)-3-(4-methoxyphenyl)-1-oxopropan-2-yl)carbamate level by measuring absorbance at 340 nm at 150 uM pretreated with TrxR inhibitor AF for 30 mins followed by compound addition in presence of NADPH. The format is ADME, subcellular.

The nature of series [19]: Prodrug activation in human HeLa cell lysate expressing shTXNRD1 assessed as reduction in 1,2-dithiolan-4-yl ((S)-1-(((2S,3S,4R,5R)-5-(6-(dimethylamino)-9H-purin-9-yl)-4-hydroxy-2-(hydroxymethyl)tetrahydrofuran-3-yl)amino)-3-(4-methoxyphenyl)-1-oxopropan-2-yl)carbamate level by measuring absorbance at 340 nm at 150 uM pretreated with TrxR inhibitor AF for 30 mins followed by compound addition in presence of NADPH. The format is ADME, subcellular.

In series [20] the test system is HeLa. As to the kind of experiment: Potency index, ratio of test compound IC50 to puromycin IC50 for cytotoxicity against human HeLa cells. The format is functional.
Series [21] relates to MCF7. As to the kind of experiment: Potency index, ratio of test compound IC50 to puromycin IC50 for cytotoxicity against human MCF7 cells. Format: functional.
The test system of another series is BEAS-2B. As to the kind of experiment: Potency index, ratio of test compound IC50 to puromycin IC50 for cytotoxicity against human BEAS-2B cells. The format is functional.
For series [22], the system named is HL-60. As to the kind of experiment: Potency index, ratio of test compound IC50 to puromycin IC50 for cytotoxicity against human HL-60 cells. Format: functional.
Series [23] deals with HepG2. As to the kind of experiment: Cytotoxicity against human HepG2 cells expressing shNT assessed as reduction in cell viability incubated for 48 hrs by MTT assay. Format: functional, cell-based. The note with it: HepG2, 48 h.
In series [24] the test system is HepG2. As to the kind of experiment: Potency index, ratio of test compound IC50 to puromycin IC50 for cytotoxicity against human HepG2 cells. The format is functional.
In series [25] the target is T1, Thioredoxin (Homo sapiens). As to the kind of experiment: Substrate activity at Trx (unknown origin) assessed as reduction in 1,2-dithiolan-4-yl ((S)-1-(((2S,3S,4R,5R)-5-(6-(dimethylamino)-9H-purin-9-yl)-4-hydroxy-2-(hydroxymethyl)tetrahydrofuran-3-yl)amino)-3-(4-methoxyphenyl)-1-oxopropan-2-yl)carbamate level by measuring absorbance at 340 nm at 150 uM in presence of NADPH.

A further series has as its system HEK-293T. As to the kind of experiment: Potency index, ratio of test compound IC50 to puromycin IC50 for cytotoxicity against human HEK293T cells. Format: functional.
Series [26] is described as follows: Prodrug activation in human HepG2 cells assessed as increase in biotin labelling at 10 uM incubated for 12 hrs by Western blotting analysis. The format is cell-based. The note with it: hepg2, 12 h.
A short description of series [27]: Prodrug activation in human HepG2 cells assessed as increase in rhodamine labelling at 10 uM incubated for 12 hrs by in-gel fluorescence imaging analysis. The format is cell-based. The note with it: hepg2, 12 h.
A short description of series [28]: Prodrug conversion in human HepG2 cells assessed as inhibition of proteome incorporation at 1 uM pretreated with AF for 30 mins followed by compound addition. The format is cell-based. As to conditions: hepg2, 1 µM.

Calls of active or inactive are those of the source. The calls are words filed in the database; no cut-off is given here.

On to `COc1ccc(C[C@H](NC(=O)OC2CCCC2)C(=O)N[C@H]2[C@@H](O)[C@H](n3cnc4c(N(C)C)ncnc43)O[C@@H]2CO)cc1`, for which the IC50 with HepG2 [1], in the series on HeLa [4], with HL-60 [8] and with MCF7 [9] was more than 40 µM each time. The remaining at 48 h, 100 µM in series [2], in [5] and in series [7] was more than 90% in each case. Besides, the IC50 at 48 h in [3] and in series [6] was more than 40 µM each time. For the same compound, the Drug metabolism result in series [10] is “Metabolite_Notdetected”.

For the compound `COc1ccc(C[C@H](NC(=O)OCCSSCCO)C(=O)N[C@H]2[C@@H](O)[C@H](n3cnc4c(N(C)C)ncnc43)O[C@@H]2CO)cc1`, the outcome in [11] was Active. Also, the IC50 came to 9.27 µM with HepG2 [1], 6.84 µM with HeLa [4], 56.7 µM in the series with HL-60 [8] and 27.5 µM with MCF7 [9]. Also, the remaining at 48 h, 100 µM in series [2] was 29%; in series [5], 42%; in series [7] it was more than 90%. In addition, the IC50 at 48 h in [3] stood at 24.7 µM; in series [6], 12.6 µM. For the same compound, the outcome in series [12] was Active.

Regarding `C#CCOc1ccc(C[C@H](N)C(=O)N[C@H]2[C@@H](O)[C@H](n3cnc4c(N(C)C)ncnc43)O[C@@H]2CO)cc1`, the result in series [13], in series [14] and in series [15] was Active.

For the compound `COc1ccc(C[C@H](N)C(=O)N[C@H]2[C@@H](O)[C@H](n3cnc4c(N(C)C)ncnc43)O[C@@H]2CO)cc1` [PUROMYCIN], the IC50 in the series on HepG2 [1] was found to be 1.29 µM; in the series with HeLa [4] it was 0.9 µM; in the series on HL-60 [8], 3.73 µM; in the series on MCF7 [9], 1.06 µM. For the same compound, the IC50 at 48 h in series [3] is 1.28 µM; in series [6], 0.74 µM.

Take `COc1ccc(C[C@H](NC(=O)OCCCCCCO)C(=O)N[C@H]2[C@@H](O)[C@H](n3cnc4c(N(C)C)ncnc43)O[C@@H]2CO)cc1`: the IC50 in the series with HepG2 [1], with HeLa [4], in the series on HL-60 [8] and in the series on MCF7 [9] was more than 40 µM each time. Also, the remaining at 48 h, 100 µM in series [2], in series [5] and in series [7] was more than 90% in each case. Further, the IC50 at 48 h in [3] and in series [6] was more than 40 µM throughout. Besides, in [10], the Drug metabolism entry was “Metabolite_Notdetected”.

Take `COc1ccc(C[C@H](NC(=O)OC2CSSC2)C(=O)N[C@H]2[C@@H](O)[C@H](n3cnc4c(N(C)C)ncnc43)O[C@@H]2CO)cc1`: the outcome in series [16] was Active. Also, the IC50 came out at 11.3 µM with HepG2 [17]; 8.08 µM in the series on HepG2 [1]; 4.88 µM in the series with HepG2 [23]; 6.08 µM in the series on HeLa [4]; 55 µM with HL-60 [8]; 14.2 µM in the series on MCF7 [9]. In addition, the Drug metabolism result in series [18] and in series [19] was “Metabolite_Notdetected” each time. For the same compound, the “Ratio IC50” value in the series with HeLa [20] was 6.8; with MCF7 [21] it was 13.4; with BEAS-2B, 11.4; with HL-60 [22], 14.7; in the series on HepG2 [24], 6.3; with HEK-293T, 15.2. Further, the remaining at 48 h, 100 µM in series [2], in [5] and in series [7] was more than 90% throughout. The results for the IC50 at 48 h in series [3] and in series [6] were 19.5 µM and 8.42 µM, respectively. The result in [25] was Active.

Take `C#CCOc1ccc(C[C@H](NC(=O)OC2CSSC2)C(=O)N[C@H]2[C@@H](O)[C@H](n3cnc4c(N(C)C)ncnc43)O[C@@H]2CO)cc1`: the result in series [26] and in series [27] was Active. Also, the “inhibition (INH)” value in series [28] is “Active”.

Usually IC50 stands for the concentration at which inhibition is half-maximal.
